{"source": "patent US20080249144A1", "about": "“Preventive or Therapeutic Agent for Chronic Inflammatory Lung Disease” (KAKEN PHARMACEUITICAL CO., LTD., priority 2004, published 2008)", "key": {"[1]": {"assay": "KP-496 concentration in the mouse lung tissue after inhalation", "type": "in vivo, mice", "conditions": "after 30 min inhalation of nebulized KP-496 solution (0.5 w/v %)", "method": "Seven-week old C57BL-strain male mice were was used. The mouse was allowed to inhale nebulized KP-496 for 30 min. through a nasal cavity to the lung tissue in the same manner as in Example 2. After completion of the inhalation, the mouse was killed by exsanguination under anaesthesia with pentobarbital. Immediately after that, the lung was excised out, weighed and freezed at −80° C. to store. A 4-fold volume of phosphate buffer was added to the lung homogenized and measured with LC-MS. The number of animals was five."}, "[2]": {"test_system": "human neutrophils", "assay": "LTB4-induced human neutrophil migration (48-well modified Boyden chamber)", "type": "cell-based", "method": "Leukocytes were collected from human peripheral blood samples (20 mL of venous blood was taken by a doctor) were obtained from 4 healthy adults (male). They received sufficient information on the purpose of the experiment and gave informed consent in advance. An equivalent amount of 3% dextran (M.W. 208000) saline solution was added to the heparinized blood thus obtained and the mixture was kept to stand for one hour. Thereafter, the supernatant was collected and centrifuged at 150 g for 5 minutes at 4° C. The supernatant was discarded and the pellet was repeatedly twice haemolysed. To explain in detail, 4 mL of an ice-cooled 0.2% NaCl solution was added, quickly suspended and allowed to stand for 20 to 30 seconds. Thereafter, 4 mL of an ice-cooled 1.6% NaCl solution was added to the suspension solution to return the solution to the isotonic condition. After centrifugation was performed at 150 g for 5 minutes at 4° C., the same treatment was repeated. The cell pellet obtained was finally suspended in a buffer (Hank's solution containing 0.1% FBS) and subjected to an experiment.\nThis experiment was performed using a 48-well modified Boyden chamber (Neuro Probe). To explain in detail, the wells of the bottom plate of the chamber were filled with 25 μl of vehicle solution containing 10 nmol/L of LTB4. A polycarbonate filter (PVP-free, pore size: 3 μm) was placed on the bottom plate. The top plate of the chamber was mounted and each well of the upper plate was filled with 45 μL of a leukocyte suspension solution (1.0×10^6 cells/mL) prepared with the buffer. Immediately after that, 5 μL of a test substance (10 fold concentration of a final concentration) was added to the wells. […] The numbers of cells were counted in 4 visual fields (×400) per well and the average of them was regarded as the number of migrated cells. Each test substance was evaluated using 3 wells. The average value of these wells was calculated and regarded as the value of each substance.\nThe average and standard deviation of each group were calculated. […]"}, "[3]": {"test_system": "murine model of BLM-induced pulmonary fibrosis", "assay": "BLM-induced pulmonary fibrosis model in mice", "type": "in vivo", "method": "Bleomycin chloride (BLM) was dissolved in a physiological saline solution (saline). BLM was intravenously administered to 10-week-old ICR-strain male mice once in a dose of […] to induce disease. To a non-BLM administration group, saline was administered, instead. KP-496 was administered by inhalation twice a day from the initiation date of BLM administration to the day before autopsy. To describe in brief, a mouse housed in a polyethylene container under unrestrained conditions was allowed to spontaneously inhale a mist state of KP-496 solution (0.5 w/v %) nebulized by a nebulizer for 30 minutes. Furthermore, the vehicle (saline) for KP-496 was administered by inhalation to a control group, in the same manner. A group consisted of 8 animals.\nOn the 7th day or 21st day after administration of BLM, the mouse was killed by exsanguinations under anaesthesia with pentobarbital. Immediately after that, BAL of the right lung alone was done. BAL fluid (BALF) was centrifuged and the supernatant was removed, and thereafter, precipitated cells were resuspended in saline. The total number of cells was determined by use of a particle counter analyzer. Furthermore, using the remaining cell suspension solution, a smear sample of cells was prepared and stained with Giemsa. The cells were classified according to the cell type. Based on the percentages of cell types, the numbers of classified cells were calculated.\nAfter BAL, the right lung was lyophilized. The content of hydroxyproline in the lung tissue was measured in accordance with the KISO method using chloramine T (Inayama et al., Keio J. Med., 27: 43 (1978)).\nAfter BAL, the left lung was fixed in 10 vol % neutral-buffered formalin solution. Thereafter, a paraffin section was prepared in a general way, stained with H. E. and azan and subjected to histopathologic examination of the lung. When an abnormality was observed, the degree of the abnormality was arbitrarily evaluated under blind conditions and scored based on the following 4 stages:\n0: No abnormality is observed\n1: Pathologic lesion is locally observed in a limited area of a sample\n2: Pathologic lesion is observed about a ⅓ region of a sample\n3: Pathologic lesion is observed about a ½ region of a sample\n4: Pathologic lesion is observed in substantially the entire region of a sample.\nThe average value and standard deviation of each group were obtained. Comparison between two groups, that is, between BLM administration/vehicle group and BLM administration/KP-496 group or a saline administration/vehicle group, was performed with the Student's t-test. Furthermore, histopathologic lesion scores were evaluated by the Mann-Whitney test. The significance level (P) was set at […]."}, "[4]": {"conditions": "7th day after BLM, inhalation twice a day"}, "[5]": {"conditions": "21st day after BLM, inhalation twice a day"}}}
{"molecule": "CC(C)c1csc(COc2cccc(CN(CCCCNS(=O)(=O)c3ccc(Cl)cc3)S(=O)(=O)c3ccccc3C(=O)O)c2)n1", "note": "[KP-496, 2-{N-[4-(4-chlorobenzenesulfonylamino)butyl]-N-{3-[(4-isopropyl-2-thiazolyl)methoxy]benzyl}}sulfamoylbenzoic acid]", "values": [{"measurement": "content of KP-496 in murine lung", "setting": "[1]", "result": "418 ± 114", "unit": "ng"}, {"measurement": "suppression of LTB4-induced cell migration, concentration dependence", "setting": "[2]; 10 nmol/L LTB4, human leukocytes, 1.5 hours", "result": "suppressed the cell migration in a concentration dependent manner"}, {"measurement": "suppression of LTB4-induced neutrophil migration", "setting": "[2]; test substance 1 μmol/L, 10 nmol/L LTB4", "result": "significantly suppressed"}, {"measurement": "hydroxyproline content of the right lung lobe", "setting": "[3]; 7th day after BLM", "result": "129.9 ± 11.35", "unit": "µg"}, {"measurement": "total number of cells in BALF", "setting": "[3]; 7th day after BLM, KP-496 0.5 w/v % inhalation twice a day", "result": "0.6±0.29 ×10^5 cells"}, {"measurement": "number of alveolar macrophages in BALF", "setting": "[3]; [4]", "result": "0.6±0.27 ×10^5 cells"}, {"measurement": "number of eosinophils in BALF", "setting": "[3]; [4]", "result": "0.3±0.68 ×10^3 cells"}, {"measurement": "number of lymphocytes in BALF", "setting": "[3]; [4]", "result": "0.1±0.09 ×10^4 cells"}, {"measurement": "number of neutrophils in BALF", "setting": "[3]; [4]", "result": "0.2±0.11 ×10^4 cells"}, {"measurement": "histopathologic score of acute inflammation, left lung", "setting": "[3]; 7th day after BLM, score 0-4", "result": "1.0±0.76"}, {"measurement": "hydroxyproline content of the right lung lobe", "setting": "[3]; 21st day after BLM", "result": "138.0 ± 9.93", "unit": "µg"}, {"measurement": "number of alveolar macrophages in BALF", "setting": "[3]; [5]", "result": "0.7±0.23 ×10^5 cells"}, {"measurement": "number of eosinophils in BALF", "setting": "[3]; [5]", "result": "0.1±0.21 ×10^3 cells"}, {"measurement": "number of lymphocytes in BALF", "setting": "[3]; [5]", "result": "0.3±0.10 ×10^4 cells"}, {"measurement": "number of neutrophils in BALF", "setting": "[3]; [5]", "result": "0.02±0.02 ×10^4 cells"}, {"measurement": "total number of cells in BALF", "setting": "[3]; [5]", "result": "0.8±0.24 ×10^5 cells"}, {"measurement": "histopathologic score of chronic inflammation, left lung", "setting": "[3]; 21st day after BLM, score 0-4", "result": "1.0±0.76"}, {"measurement": "histopathologic score of fibrogenesis, left lung", "setting": "[3]; 21st day after BLM, score 0-4", "result": "0.6±0.52"}]}
